Assay results: PMC8095338 (Neuro-oncology Advances, 2021)
Values joined by “and” are separate entries in the source; they are usually repeats but may differ in a detail not shown here. Equal values may be shown once.

Legend:
Assay type in all cases: in vivo, minipig
[1] = Plasma PK study in WT and NF1 minipigs (LC-MS/MS, noncompartmental); settings: minipig, po, 7.4 mg/kg, WT minipigs, 7.4 mg/kg single oral dose, median (range)
Procedure: Plasma isolation was performed as described in a previous study.[13] […] Tissues were harvested and immediately transferred to cryovials and stored at −80°C until analysis.
(§1) Standard curves and controls were generated using corresponding untreated tissue. Skin tissue was treated with collagenase, and all organ tissues were homogenized. Liquid extraction with ethyl acetate was then performed, followed by analysis. […] The chromatographic separation was performed as described.[13] Mass spectrometric detection was performed using multiple reaction monitoring in positive ionization mode. […] Ion source gases 1 and 2 were set at 50 and 50 psi, respectively; the curtain gas was at 20 psi and the collision gas at 4 psi. […] Data acquisition was performed with analyst 1.4.1 software (MDS-SCIEX).
The PK parameters included AUC–time curve from time 0 to ∞ (linear up, log down), Cmax, Tmax, and T1/2.

[2] = Tissue PK, LC-MS/MS; settings: for concentration at 2 h: po
Procedure: WT (n = 8) and NF1 (n = 8) minipigs received a single human equivalent oral dose of 450 mg (7.3 mg/kg). Untreated WT (n = 4) and NF1 (n = 4) minipigs were also enrolled as controls. All animals were euthanized 2 h after drug administration. Tissue samples were collected from each animal at the same approximate locations and divided for analysis.
Selumetinib PK studies were performed in plasma, skin, sciatic nerve, optic nerve, and brain. Plasma isolation was performed as described in a previous study.[13] […] Tissues were harvested and immediately transferred to cryovials and stored at −80°C until analysis.
as §1

[3] = Dose-finding study, plasma PK in wild-type minipigs; settings: for Cmax: female, WT minipig, plasma (data not shown)
Procedure: This was conducted to determine the dose required to reach the human equivalent therapeutic exposure. Human equivalent doses of 50, 75, 300, and 600 mg were tested. Each dose was administered orally to a 5-month-old wild-type female minipig. Blood was collected immediately prior to drug administration (T = 0) and 1, 2, 6, and 24 h after drug administration.

[4] = 2 h after single oral 7.3 mg/kg, P = .03
[5] = NF1 minipigs n = 8, 2 h after single oral 7.3 mg/kg
[6] = WT minipigs n = 8, 2 h after single oral 7.3 mg/kg
[7] = all 16 minipigs, 2 h after single oral 7.3 mg/kg
[8] = all 16 minipigs, 2 h after single oral 7.3 mg/kg, 7.3 mg/kg
[9] = individual NF1/F minipigs, 2 h after single oral 7.3 mg/kg, 7.3 mg/kg
[10] = individual NF1/M minipigs, 2 h after single oral 7.3 mg/kg, 7.3 mg/kg
[11] = individual WT/F minipigs, 2 h after single oral 7.3 mg/kg, 7.3 mg/kg
[12] = individual WT/M minipigs, 2 h after single oral 7.3 mg/kg, 7.3 mg/kg

## Cn1cnc2c(F)c(Nc3ccc(Br)cc3Cl)c(C(=O)NOCCO)cc21 [selumetinib]
[1]
  half-life: 9 h
[1]; read-out: Cmax
  Cmax: 749 ng/mL
[2]; [4]
  mean selumetinib concentration in cerebral cortex, NF1 compared to WT minipigs: higher
  mean selumetinib concentration in optic nerve, NF1 compared to WT minipigs: higher
[2]; [5]
  Selumetinib concentration in tissues, Cerebral cortex, Range (NF1): (20-105) ng/g
  Selumetinib concentration in tissues, Optic nerve, Range (NF1): (4-101) ng/g
  Selumetinib concentration in tissues, Sciatic nerve, Range (NF1): (5-36) ng/g
  Selumetinib concentration in tissues, Skin, Range (NF1): (14-155) ng/g
[2]; [6]
  Selumetinib concentration in tissues, Cerebral cortex, Range (WT): (15-76) ng/g
  Selumetinib concentration in tissues, Optic nerve, Range (WT): (7-46) ng/g
  Selumetinib concentration in tissues, Sciatic nerve, Range (WT): (6-51) ng/g
  Selumetinib concentration in tissues, Skin, Range (WT): (9-111) ng/g
[2]; [7]
  Selumetinib concentration in tissues, Cerebral cortex, Range (All): (15-105) ng/g
  Selumetinib concentration in tissues, Optic nerve, Range (All): (4-101) ng/g
  Selumetinib concentration in tissues, Sciatic nerve, Range (All): (5-51) ng/g
  Selumetinib concentration in tissues, Skin, Range (All): (9-155) ng/g
[2]; [8]
  Selumetinib concentration in tissues, Cerebral cortex, Median (All): 51 ng/g
  Selumetinib concentration in tissues, Optic nerve, Median (All): 36 ng/g
  Selumetinib concentration in tissues, Sciatic nerve, Median (All): 25 ng/g
  Selumetinib concentration in tissues, Skin, Median (All): 24 ng/g
[2]; [9]
  Selumetinib concentration in tissues, Cerebral cortex: 63 ng/g and 105 ng/g and 101 ng/g and 20 ng/g
  Selumetinib concentration in tissues, Optic nerve: 43 ng/g and 81 ng/g and 101 ng/g and 4 ng/g
  Selumetinib concentration in tissues, Sciatic nerve: 20 ng/g and 10 ng/g and 17 ng/g and 5 ng/g
  Selumetinib concentration in tissues, Skin: 36 ng/g and 155 ng/g and 14 ng/g and 17 ng/g
[2]; [10]
  Selumetinib concentration in tissues, Cerebral cortex: 67 ng/g and 83 ng/g and 28 ng/g and 64 ng/g
  Selumetinib concentration in tissues, Optic nerve: 59 ng/g and 34 ng/g
  Selumetinib concentration in tissues, Sciatic nerve: 36 ng/g and 33 ng/g
  Selumetinib concentration in tissues, Skin: 16 ng/g and 79 ng/g and 108 ng/g and 26 ng/g
[2]; [11]
  Selumetinib concentration in tissues, Cerebral cortex: 26 ng/g and 42 ng/g and 76 ng/g and 47 ng/g
  Selumetinib concentration in tissues, Optic nerve: 24 ng/g and 26 ng/g and 19 ng/g and 46 ng/g
  Selumetinib concentration in tissues, Sciatic nerve: 46 ng/g and 38 ng/g and 36 ng/g and 16 ng/g
  Selumetinib concentration in tissues, Skin: 22 ng/g and 111 ng/g and 81 ng/g and 12 ng/g
[2]; [12]
  Selumetinib concentration in tissues, Cerebral cortex: 20 ng/g and 15 ng/g and 54 ng/g and 44 ng/g
  Selumetinib concentration in tissues, Optic nerve: 35 ng/g and 7 ng/g and 32 ng/g and 36 ng/g
  Selumetinib concentration in tissues, Sciatic nerve: 6 ng/g and 9 ng/g and 51 ng/g and 15 ng/g
  Selumetinib concentration in tissues, Skin: 9 ng/g and 19 ng/g and 32 ng/g
[2]; male, minipig, optic nerve, 7.3 mg/kg, Selumetinib concentration in tissues, Optic nerve, individual NF1/M minipigs, 2 h after single oral 7.3 mg/kg
  concentration at 2 h: 43 ng/g
[2]; male, minipig, sciatic nerve, 7.3 mg/kg, Selumetinib concentration in tissues, Sciatic nerve, individual NF1/M minipigs, 2 h after single oral 7.3 mg/kg
  concentration at 2 h: 29 ng/g
[2]; minipig, brain / plasma, minipigs, single oral 7.3 mg/kg, read-out: median brain–plasma ratio
  Kp at 2 h: 0.1
[2]; minipig, cerebral cortex, 7.3 mg/kg, Selumetinib concentration in tissues, Cerebral cortex, Median (All), all 16 minipigs, 2 h after single oral 7.3 mg/kg
  concentration at 2 h: 66 ng/g
[2]; minipig, cerebral cortex, 7.3 mg/kg, Selumetinib concentration in tissues, Cerebral cortex, Median (NF1), NF1 minipigs n = 8, 2 h after single oral 7.3 mg/kg
  concentration at 2 h: 66 ng/g
[2]; minipig, cerebral cortex, 7.3 mg/kg, Selumetinib concentration in tissues, Cerebral cortex, Median (WT), WT minipigs n = 8, 2 h after single oral 7.3 mg/kg
  concentration at 2 h: 43 ng/g
[2]; minipig, optic nerve, 7.3 mg/kg, Selumetinib concentration in tissues, Optic nerve, Median (All), all 16 minipigs, 2 h after single oral 7.3 mg/kg
  concentration at 2 h: 43 ng/g
[2]; minipig, optic nerve, 7.3 mg/kg, Selumetinib concentration in tissues, Optic nerve, Median (NF1), NF1 minipigs n = 8, 2 h after single oral 7.3 mg/kg
  concentration at 2 h: 43 ng/g
[2]; minipig, optic nerve, 7.3 mg/kg, Selumetinib concentration in tissues, Optic nerve, Median (WT), WT minipigs n = 8, 2 h after single oral 7.3 mg/kg
  concentration at 2 h: 29 ng/g
[2]; minipig, 7.3 mg/kg, selumetinib concentration, range over all tissues, cerebral cortex, optic nerve, sciatic nerve, skin, all minipigs, 2 h after single oral 7.3 mg/kg
  concentration at 2 h: 4 to 155 ng/g
[2]; minipig, sciatic nerve, 7.3 mg/kg, Selumetinib concentration in tissues, Sciatic nerve, Median (All), all 16 minipigs, 2 h after single oral 7.3 mg/kg
  concentration at 2 h: 23 ng/g
[2]; minipig, sciatic nerve, 7.3 mg/kg, Selumetinib concentration in tissues, Sciatic nerve, Median (NF1), NF1 minipigs n = 8, 2 h after single oral 7.3 mg/kg
  concentration at 2 h: 25 ng/g
[2]; minipig, sciatic nerve, 7.3 mg/kg, Selumetinib concentration in tissues, Sciatic nerve, Median (WT), WT minipigs n = 8, 2 h after single oral 7.3 mg/kg
  concentration at 2 h: 26 ng/g
[2]; minipig, skin, 7.3 mg/kg, Selumetinib concentration in tissues, Skin, Median (All), all 16 minipigs, 2 h after single oral 7.3 mg/kg
  concentration at 2 h: 34 ng/g
[2]; minipig, skin, 7.3 mg/kg, Selumetinib concentration in tissues, Skin, Median (NF1), NF1 minipigs n = 8, 2 h after single oral 7.3 mg/kg
  concentration at 2 h: 56 ng/g
[2]; minipig, skin, 7.3 mg/kg, Selumetinib concentration in tissues, Skin, Median (WT), WT minipigs n = 8, 2 h after single oral 7.3 mg/kg
  concentration at 2 h: 21 ng/g
[3]; WT minipigs, from 75 to 300 mg human equivalent dose
  dose proportionality of selumetinib exposure: dose proportional
[3]; single oral 300 mg human equivalent dose
  Cmax: 1000 ng/mL
[3]; single oral 600 mg human equivalent dose
  Cmax: 670 ng/mL
